From patent publication US8796268B2, “Heteroaryls and uses thereof” (Millennium Pharmaceuticals, Inc., priority 2010, dated 2014) come the findings set out here.

What all share (format): biochemical
The target of experiment [1] is T1, Human PI3K beta (Homo sapiens, UniProt P42338).
T1 construct: His (N); host or cells: SF9 insect cells (baculovirus)
In words: Human PI3K beta enzyme assay (HTRF). The settings on record: concentration not given; b1387 states 1.1 μM for PI3K α and β; read-out: p110 beta Percent Inhibition. The essentials: (§1)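 Compounds were mixed with 25 uM ATP, then with 3.5 uM di-C8 PI(4,5)P2 and His-tagged PI3K isoform (β 5.25 nM, δ 0.75 nM, γ 5 nM) at pH 7.00. After 30 min at room temperature, EDTA stopped the reaction and PIP3 was measured by HTRF over 1 h.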
Background: In TR-FRET formats the signal depends on donor and acceptor labels being close together.

Experiment [2] deals with T2, Human PI3K alpha (Homo sapiens, UniProt P42336).
T2 construct: His (N); host or cells: SF9 insect cells (baculovirus)
T2 sequence (P42336 whole entry): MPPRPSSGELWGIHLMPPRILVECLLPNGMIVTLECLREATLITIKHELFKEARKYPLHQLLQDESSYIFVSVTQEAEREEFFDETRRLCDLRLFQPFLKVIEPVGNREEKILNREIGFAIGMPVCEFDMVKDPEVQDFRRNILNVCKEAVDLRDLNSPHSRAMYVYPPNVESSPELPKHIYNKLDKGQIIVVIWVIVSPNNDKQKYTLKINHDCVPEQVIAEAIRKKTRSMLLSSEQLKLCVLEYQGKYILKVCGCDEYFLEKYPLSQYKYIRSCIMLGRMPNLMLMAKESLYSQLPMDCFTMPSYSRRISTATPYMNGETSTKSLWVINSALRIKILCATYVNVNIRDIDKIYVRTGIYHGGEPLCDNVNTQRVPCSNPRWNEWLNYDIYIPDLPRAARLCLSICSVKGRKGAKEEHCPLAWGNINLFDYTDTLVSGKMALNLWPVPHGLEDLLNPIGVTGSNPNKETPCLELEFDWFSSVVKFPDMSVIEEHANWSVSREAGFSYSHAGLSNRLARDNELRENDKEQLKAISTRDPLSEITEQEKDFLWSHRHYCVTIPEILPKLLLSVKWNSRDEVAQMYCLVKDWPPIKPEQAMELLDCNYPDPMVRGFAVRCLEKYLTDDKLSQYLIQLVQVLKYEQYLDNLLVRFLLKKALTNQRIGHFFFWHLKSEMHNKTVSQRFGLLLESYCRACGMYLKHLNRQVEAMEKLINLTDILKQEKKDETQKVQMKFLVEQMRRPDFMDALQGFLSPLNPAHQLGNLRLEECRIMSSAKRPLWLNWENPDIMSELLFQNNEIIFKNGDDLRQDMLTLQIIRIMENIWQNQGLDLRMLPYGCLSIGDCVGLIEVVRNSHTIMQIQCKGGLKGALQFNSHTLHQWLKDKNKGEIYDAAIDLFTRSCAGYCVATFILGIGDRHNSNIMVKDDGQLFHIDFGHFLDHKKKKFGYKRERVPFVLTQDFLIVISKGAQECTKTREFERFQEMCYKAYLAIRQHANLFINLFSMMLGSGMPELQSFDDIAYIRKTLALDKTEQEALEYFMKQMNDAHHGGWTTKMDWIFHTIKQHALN
T2 sequence (P27986 whole entry partner): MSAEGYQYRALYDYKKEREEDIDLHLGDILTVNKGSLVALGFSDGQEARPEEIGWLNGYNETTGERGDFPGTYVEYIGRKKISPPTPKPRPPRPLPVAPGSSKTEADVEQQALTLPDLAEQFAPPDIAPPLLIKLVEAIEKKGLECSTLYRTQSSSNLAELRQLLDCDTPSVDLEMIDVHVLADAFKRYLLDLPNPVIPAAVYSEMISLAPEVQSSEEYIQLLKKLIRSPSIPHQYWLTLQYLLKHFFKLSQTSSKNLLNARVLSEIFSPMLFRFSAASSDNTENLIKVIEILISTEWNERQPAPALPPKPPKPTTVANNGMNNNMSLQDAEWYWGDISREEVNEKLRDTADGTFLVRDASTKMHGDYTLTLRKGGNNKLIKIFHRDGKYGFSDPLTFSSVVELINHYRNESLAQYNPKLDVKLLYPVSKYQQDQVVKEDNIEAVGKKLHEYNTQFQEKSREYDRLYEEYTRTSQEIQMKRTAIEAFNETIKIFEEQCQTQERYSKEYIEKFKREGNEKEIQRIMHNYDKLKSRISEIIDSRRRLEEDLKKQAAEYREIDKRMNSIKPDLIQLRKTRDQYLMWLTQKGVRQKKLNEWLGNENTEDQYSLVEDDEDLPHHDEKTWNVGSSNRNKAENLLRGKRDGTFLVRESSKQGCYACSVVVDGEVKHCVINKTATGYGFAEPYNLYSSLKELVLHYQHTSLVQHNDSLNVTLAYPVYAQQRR
Nature of the experiment: Human PI3K alpha enzyme assay (HTRF). The settings on record: concentration not given, b1387 states 1.1 μM for PI3K α and β; for inhibition at 1.1 µM: read-out: p110 alpha Percent Inhibition.

The target in experiment [3] is T3, Human PI3K delta (Homo sapiens, UniProt O00329).
T3 construct: His (N); host or cells: SF9 insect cells (baculovirus)
T3 sequence (O00329 whole entry): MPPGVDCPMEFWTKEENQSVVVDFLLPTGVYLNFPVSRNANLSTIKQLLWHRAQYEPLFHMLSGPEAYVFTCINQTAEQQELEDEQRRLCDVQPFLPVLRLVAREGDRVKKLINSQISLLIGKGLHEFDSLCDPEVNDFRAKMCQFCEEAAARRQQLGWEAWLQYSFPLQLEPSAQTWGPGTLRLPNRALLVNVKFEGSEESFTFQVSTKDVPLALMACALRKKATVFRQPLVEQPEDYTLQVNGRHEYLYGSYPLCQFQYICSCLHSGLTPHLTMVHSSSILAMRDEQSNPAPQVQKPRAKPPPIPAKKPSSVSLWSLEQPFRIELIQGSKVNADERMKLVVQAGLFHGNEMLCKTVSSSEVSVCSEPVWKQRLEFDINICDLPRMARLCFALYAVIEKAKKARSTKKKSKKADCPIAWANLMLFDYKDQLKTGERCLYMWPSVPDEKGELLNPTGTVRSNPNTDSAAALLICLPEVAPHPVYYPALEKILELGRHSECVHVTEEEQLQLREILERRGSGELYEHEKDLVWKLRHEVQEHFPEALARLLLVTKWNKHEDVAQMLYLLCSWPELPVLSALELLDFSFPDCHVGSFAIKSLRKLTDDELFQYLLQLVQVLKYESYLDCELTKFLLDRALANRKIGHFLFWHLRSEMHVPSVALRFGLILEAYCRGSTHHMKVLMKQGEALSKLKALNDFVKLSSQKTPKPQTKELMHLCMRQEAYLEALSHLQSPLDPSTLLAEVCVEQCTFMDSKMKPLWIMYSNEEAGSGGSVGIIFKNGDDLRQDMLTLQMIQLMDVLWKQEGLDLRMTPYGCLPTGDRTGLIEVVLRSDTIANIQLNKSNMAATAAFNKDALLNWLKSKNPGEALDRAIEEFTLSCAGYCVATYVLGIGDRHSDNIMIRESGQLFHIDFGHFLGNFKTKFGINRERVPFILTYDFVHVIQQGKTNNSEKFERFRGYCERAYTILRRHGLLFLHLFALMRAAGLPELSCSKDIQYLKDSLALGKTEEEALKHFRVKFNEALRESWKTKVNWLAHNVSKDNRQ
T3 sequence (P27986 whole entry partner): as the sequence (P27986 whole entry partner) above
In words: Human PI3K delta enzyme assay (HTRF). The settings on record: concentration not given; b1389 states 1.0 μM for PI3K δ and γ; read-out: p110 delta Percent Inhibition. Summed up:
as §1

The target in experiment [4] is T4, Human PI3K gamma (Homo sapiens, UniProt P48736).
T4 construct: His (N); host or cells: SF9 insect cells (baculovirus)
T4 sequence (P48736 whole entry): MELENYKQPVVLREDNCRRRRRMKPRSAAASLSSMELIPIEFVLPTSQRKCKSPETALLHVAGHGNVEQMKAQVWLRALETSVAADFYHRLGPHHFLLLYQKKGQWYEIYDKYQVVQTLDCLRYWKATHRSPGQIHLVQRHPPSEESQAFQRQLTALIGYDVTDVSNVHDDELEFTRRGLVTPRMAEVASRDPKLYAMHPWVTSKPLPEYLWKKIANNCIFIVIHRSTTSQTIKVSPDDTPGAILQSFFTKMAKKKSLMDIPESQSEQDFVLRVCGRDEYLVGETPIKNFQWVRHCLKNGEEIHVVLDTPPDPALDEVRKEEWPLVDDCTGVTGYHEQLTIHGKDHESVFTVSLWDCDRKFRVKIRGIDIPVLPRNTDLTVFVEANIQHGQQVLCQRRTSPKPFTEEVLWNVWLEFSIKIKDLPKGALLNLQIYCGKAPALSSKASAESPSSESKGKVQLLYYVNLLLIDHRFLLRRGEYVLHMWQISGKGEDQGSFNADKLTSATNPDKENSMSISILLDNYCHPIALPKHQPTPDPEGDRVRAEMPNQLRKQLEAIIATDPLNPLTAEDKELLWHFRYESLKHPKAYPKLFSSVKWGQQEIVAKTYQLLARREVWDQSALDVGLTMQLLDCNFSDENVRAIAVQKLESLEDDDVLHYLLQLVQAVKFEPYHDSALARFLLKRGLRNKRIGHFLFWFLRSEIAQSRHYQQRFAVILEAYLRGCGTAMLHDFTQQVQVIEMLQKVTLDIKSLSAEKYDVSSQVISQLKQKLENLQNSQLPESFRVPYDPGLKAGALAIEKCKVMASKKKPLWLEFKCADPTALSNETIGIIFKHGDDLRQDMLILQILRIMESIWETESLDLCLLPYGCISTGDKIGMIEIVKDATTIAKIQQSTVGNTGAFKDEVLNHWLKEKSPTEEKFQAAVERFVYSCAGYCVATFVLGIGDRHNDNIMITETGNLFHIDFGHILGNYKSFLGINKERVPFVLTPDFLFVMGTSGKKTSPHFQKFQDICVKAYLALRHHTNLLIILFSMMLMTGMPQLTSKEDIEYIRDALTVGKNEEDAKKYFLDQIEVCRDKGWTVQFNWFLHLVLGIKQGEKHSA
In words: Human PI3K gamma enzyme assay (HTRF). The settings on record: concentration not given; b1389 states 1.0 μM for PI3K δ and γ; read-out: p110 gamma Percent Inhibition. From the text:
The catalytic subunits of PI3Ks are cloned into either pDEST8(p110 alpha) or pDEST10(p110beta, p110delta, and p110gamma) as N-terminal His tagged fusion proteins using the Gateway system (Invitrogen, catalog#11804-010 for pDEST8 and 11806-015 for pDEST10). The sequences are verified before recombinant protein expression using the Baculovirus Expression System with Gateway® Technology. The accession numbers for the subunits are as follows: • p110 alpha (GB:U79143) • p110beta (GB: S67334) • p110delta (GB: U86453) • p110gamma (GB: X83368) • The regulatory subunits of PI3Ks are cloned into pDEST8 as un-tagged protein using the Gateway system (Catalog#11804-010). The sequences are verified before recombinant protein expression using the Baculovirus Expression System with Gateway® Technology. The accession numbers for the subunits are as following: • p85 alpha (GB: BC030815) • p101(GB: AB028925) • VPS34 (accession number GB:BC033004) is cloned into pDEST20—Thombin as N-terminal GST tagged fusion proteins using the Gateway system (Invitrogen, catalog#11804-013). The sequences are verified before recombinant protein expression using the Baculovirus Expression System with Gateway® Technology.
For expression of the p110 complexes, the p85 (MOI of 4) is co-infected with p110 alpha, beta, and delta respectively (1MOI) in SF9 cells and harvested at 60 hours post co-infection. P110 gamma was infected at 1 MOI and harvested at 60 hours post infection.
For purification, PI3Ks are purified by Ni-NTA Agarose (Qiagen #30250) followed by Mono Q 10/100 GL (Ge Healthcare #17-5167-01). VPS34 is purified by Glutathione Sepharose 4 Fast Flow (GE Healthcare #17-5132-03) followed by HiTrap Q (GE Healthcare #17-1153-01).
0.5 uL compounds in DMSO are added to wells of a 384 well microtitre plate (Corning 3575). At room temperature: 10 ul PI3K reaction buffer (50 mM Hepes, 5 mM DTT, 150 mM NaCl, 10 mM beta-glycerophosphate, 10 mM MgCl2, 0.25 mM sodium cholate and 0.001% CHAPS, pH 7.00) containing ATP (25 uM, Promega) is added followed immediately by 10 ul PI3K reaction buffer containing di-C8 P1(4,5)P2 (3.5 uM, CellSignals) and PI3Kalpha (0.4875 nM, Millennium Protein Sciences Group) and the mixture is incubated with shaking at room temperature for 30 minutes. Then 5 ul PI3K stop mix (50 mM Hepes, 5 mM DTT, 150 mM NaCl, 0.01% Tween-20, 15 mM EDTA and 25 nM biotin-PI(3,4,5)P3 (Echelon) is added to quench the reaction followed immediately by addition of 5 ul HTRF detection mix (50 mM Hepes, 5 mM DTT, 150 mM NaCl, 0.01% Tween-20, 40 mM KF, 1.0 nM GST:GRP-1 PH domain (Millennium Protein Sciences Group), 15 nM Streptavidin-XL (CisBio) and 0.375 nM anti-GST Eu++ antibody (CisBio) at pH 7.00). The plates are then incubated for 1 hour at room temperature with shaking and then read on a BMG PheraStar Plus reader.
2) Human PI3K beta, delta and gamma isoforms are tested using the procedure described for PI3K alpha above but with the following changes: PI3K beta (5.25 nM), PI3K delta (0.75 nM) and PI3K gamma (5 nM). All isoforms supplied by Millennium Protein Science Group.
For the assay methods described above, test compound percent inhibition, at various concentrations, is calculated relative to control (DMSO and EDTA) treated samples. Compound concentration versus percent inhibition curves are fitted to generate IC50 values. One skilled in the art will appreciate that the values generated either as percentage inhibition at a single concentration or IC50 values are subject to experimental variation.

T1 sequence (P42338 whole entry): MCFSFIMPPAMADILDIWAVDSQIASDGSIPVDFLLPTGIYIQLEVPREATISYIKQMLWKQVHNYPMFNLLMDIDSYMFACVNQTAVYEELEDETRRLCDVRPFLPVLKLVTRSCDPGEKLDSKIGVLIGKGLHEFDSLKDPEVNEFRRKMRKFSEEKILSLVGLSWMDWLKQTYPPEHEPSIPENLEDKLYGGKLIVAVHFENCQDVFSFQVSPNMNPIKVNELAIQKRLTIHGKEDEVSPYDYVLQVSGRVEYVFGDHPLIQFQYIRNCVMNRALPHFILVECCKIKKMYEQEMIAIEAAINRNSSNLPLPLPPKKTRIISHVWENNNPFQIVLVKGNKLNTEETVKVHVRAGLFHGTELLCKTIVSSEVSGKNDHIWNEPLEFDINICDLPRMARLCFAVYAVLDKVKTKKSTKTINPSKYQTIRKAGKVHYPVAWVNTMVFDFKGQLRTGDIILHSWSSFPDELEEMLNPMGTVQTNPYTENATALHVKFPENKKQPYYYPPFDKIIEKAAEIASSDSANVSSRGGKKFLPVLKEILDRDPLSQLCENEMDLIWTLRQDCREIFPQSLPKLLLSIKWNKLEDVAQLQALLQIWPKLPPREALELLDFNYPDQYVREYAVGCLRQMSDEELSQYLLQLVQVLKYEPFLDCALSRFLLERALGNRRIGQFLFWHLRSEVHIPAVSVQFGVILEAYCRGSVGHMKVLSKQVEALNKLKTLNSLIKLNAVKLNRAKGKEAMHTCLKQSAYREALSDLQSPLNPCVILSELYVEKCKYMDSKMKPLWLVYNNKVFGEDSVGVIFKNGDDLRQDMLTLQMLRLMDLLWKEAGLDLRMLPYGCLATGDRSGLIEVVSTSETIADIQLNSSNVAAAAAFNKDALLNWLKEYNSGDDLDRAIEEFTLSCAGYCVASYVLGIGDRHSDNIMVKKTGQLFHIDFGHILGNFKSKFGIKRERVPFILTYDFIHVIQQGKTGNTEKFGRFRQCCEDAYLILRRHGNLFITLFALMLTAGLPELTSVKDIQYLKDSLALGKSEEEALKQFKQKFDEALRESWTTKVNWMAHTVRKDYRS
T1 sequence (P27986 whole entry partner): as the sequence (P27986 whole entry partner) above

Turning to `COC(=O)Nc1cc(-c2sc(-c3nnc[nH]3)c(Cc3ccc4ccccc4c3)c2C#N)ccn1` [Compound 179], the inhibition at 1.1 µM in experiment [1] was 60%; in experiment [2], 29%. Also, the inhibition at 1 µM in experiment [3] was found to be 89%; in experiment [4], 5%.

For `COc1ccc(C(O)c2cc(-c3ccncc3)sc2-c2nnc[nH]2)cn1` (stereo not drawn) [Compound 272], the inhibition at 1.1 µM was found to be 96% in experiment [1] and 70% in experiment [2]. Also, the inhibition at 1 µM came to 70% in experiment [3] and 10% in experiment [4].

As to `O=C(O)c1cc(-c2sc(-c3ccncc3)nc2Cc2ccc(Cl)cc2)[nH]n1` [Compound 262, 5-(4-(4-chlorobenzyl)-2-(pyridin-4-yl)thiazol-5-yl)-1H-pyrazole-3-carboxylic acid], the results for the inhibition at 1.1 µM in experiment [1] and in experiment [2] were 69% and 0%, respectively. In addition, the inhibition at 1 µM in experiment [3] worked out at 12%; in experiment [4], 4%.

On to `O=C(O)c1sc(N2CCOCC2)nc1Cc1cc(F)c2ccccc2c1` [Compound 338], for which the inhibition at 1.1 µM was determined as 110% in experiment [1] and 67% in experiment [2]. Also, the inhibition at 1 µM in experiment [3] came to 109%; in experiment [4] it was 73%.

With `CC(=O)Nc1cc(-c2cc(C(c3ccc(Cl)cc3)N(C)C3CN(C)C3)c(-c3nnc[nH]3)s2)ccn1` (stereo not drawn) [Compound 160], the inhibition at 1.1 µM in experiment [1] was 101%; in experiment [2] it was 74%. Further, the inhibition at 1 µM turned out to be 107% in experiment [3] and 20% in experiment [4].

In the case of `CN(C)C(c1ccc(Cl)cc1)c1cc(-c2ccnc(N)c2)sc1-c1nnc[nH]1` (stereo not drawn) [Compound 185], the inhibition at 1.1 µM in experiment [1] came out at 97%; in experiment [2], 16%. In addition, the values for the inhibition at 1 µM in experiment [3] and in experiment [4] were 50% and 9%, respectively.

Turning to `OC(c1ccc(-c2ccncc2)cc1)c1cc(-c2ccncc2)sc1-c1nnc[nH]1` (stereo not drawn) [Compound 207], the figures for the inhibition at 1.1 µM in experiment [1] and in experiment [2] were 83% and 27%, respectively. Further, the results for the inhibition at 1 µM in experiment [3] and in experiment [4] were 51% and 9%, respectively.

On to `CS(=O)(=O)NC(=O)c1sc(N2CCOCC2)c(C#N)c1Cc1ccc(Cl)c(Cl)c1` [Compound 352, 4-cyano-3-(3,4-dichlorobenzyl)-N-(methylsulfonyl)-5-morpholinothiophene-2-carboxamide], for which the figures for the inhibition at 1.1 µM in experiment [1] and in experiment [2] were 85% and 18%, respectively. The inhibition at 1 µM in experiment [3] was determined as 84%; in experiment [4], 14%.

In the case of `CC(=O)Nc1cc(-c2sc(-c3nnc[nH]3)c(C(O)c3ccc(Cl)cc3)c2C#N)ccn1` (stereo not drawn) [Compound 165], the inhibition at 1.1 µM in experiment [1] is 77%; in experiment [2], 64%. Moreover, the inhibition at 1 µM in experiment [3] worked out at 87%; in experiment [4], 14%.

Turning to `CC(=O)Nc1cc(-c2cc(C(NCC3CNC3)c3ccc(Cl)cc3)c(-c3nnc[nH]3)s2)ccn1` (stereo not drawn) [Compound 129], the inhibition at 1.1 µM in experiment [1] was found to be 106%; in experiment [2], 83%. Besides, the inhibition at 1 µM in experiment [3] came to 109%; in experiment [4] it was 32%.

In the case of `N#Cc1c(N2CCOCC2)sc(C(N)=O)c1Cc1ccc2ccccc2c1` [Compound 327, 4-cyano-5-(morpholin-4-yl)-3-(2-naphthylmethyl)thiophene-2-carboxamide], the inhibition at 1.1 µM amounted to 109% in experiment [1] and 34% in experiment [2]. The values for the inhibition at 1 µM in experiment [3] and in experiment [4] were 109% and 22%, respectively.

With `CC(=O)Nc1cc(-c2cc(C(c3ccc(Cl)cc3)N3CC(N(C)C)C3)c(-c3nnc[nH]3)s2)ccn1` (stereo not drawn) [Compound 144], in experiment [1], the inhibition at 1.1 µM was found to be 94%. In addition, the “p110 alpha Percent Inhibition” value in experiment [2] amounted to 63%. Further, the inhibition at 1 µM worked out at 111% in experiment [3] and 19% in experiment [4].

With `CC(=O)Nc1cc(-c2cc(C(NC(C)C)c3ccc(Cl)cc3)c(-c3nnc[nH]3)s2)ccn1` (stereo not drawn) [Compound 244], the inhibition at 1.1 µM is 101% in experiment [1] and 77% in experiment [2]. Further, the inhibition at 1 µM in experiment [3] was 101%; in experiment [4], 14%.

Regarding `CC(=O)Nc1cc(-c2cc(C(c3ccc(Cl)cc3)N(C)C3CNC3)c(-c3nnc[nH]3)s2)ccn1` (stereo not drawn) [Compound 274], the inhibition at 1.1 µM in experiment [1] was determined as 109%; in experiment [2], 98%. Also, the inhibition at 1 µM in experiment [3] was determined as 107%; in experiment [4], 38%.

For the molecule `CC(=O)Nc1cc(-c2cc(C(c3ccc(Cl)cc3)N3CC4(COC4)C3)c(-c3nnc[nH]3)s2)ccn1` (stereo not drawn) [Compound 247], the inhibition at 1.1 µM in experiment [1] was found to be 105%; in experiment [2], 83%. Besides, the inhibition at 1 µM in experiment [3] worked out at 104%; in experiment [4], 21%.

For the molecule `CC(=O)Nc1cc(-c2sc(-c3nnc[nH]3)c(C(c3ccc(Cl)cc3)N3CCNCC3)c2C#N)ccn1` (stereo not drawn) [Compound 218], the inhibition at 1.1 µM in experiment [1] is 102%; in experiment [2], 61%. For the same molecule, the figures for the inhibition at 1 µM in experiment [3] and in experiment [4] were 97% and 14%, respectively.

Regarding `Cn1c(Cc2c(C(=O)O)sc(N3CCOCC3)c2C#N)cc2ccccc21` [Compound 330], the inhibition at 1.1 µM was 109% in experiment [1] and 85% in experiment [2]. Moreover, the inhibition at 1 µM in experiment [3] is 106%; in experiment [4], 61%.

As to `CC(=O)Nc1cc(-c2cc(C(c3ccc(Cl)cc3)N3CC[C@@H](CO)C3)c(-c3nc[nH]n3)s2)ccn1` (stereo partly drawn) [Compound 223], the inhibition at 1.1 µM in experiment [1] was 94%; in experiment [2] it was 67%. In addition, the inhibition at 1 µM in experiment [3] was found to be 102%; in experiment [4] it was 21%.

In the case of `N#Cc1c(N2CCOCC2)sc(C(=O)O)c1Cc1ccc2ccncc2c1` [Compound 309, 4-cyano-3-(isoquinolin-7-ylmethyl)-5-(morpholin-4-yl)thiophene-2-carboxylic acid], the inhibition at 1.1 µM in experiment [1] stood at 101%; in experiment [2], 56%. The inhibition at 1 µM in experiment [3] worked out at 108%; in experiment [4], 66%.

As to `CC(=O)Nc1cc(-c2cc(C(c3ccc(Cl)cc3)N3CC(F)(F)C3)c(-c3nnc[nH]3)s2)ccn1` (stereo not drawn) [Compound 216], the inhibition at 1.1 µM in experiment [1] was 91%; in experiment [2], 64%. Besides, the inhibition at 1 µM in experiment [3] was 99%; in experiment [4] it was 11%.

Regarding `OC(c1nc(-c2ccccc2)cs1)c1cc(-c2ccncc2)sc1-c1nnc[nH]1` (stereo not drawn) [Compound 133], the inhibition at 1.1 µM in experiment [1] is 101%; in experiment [2], 84%. Moreover, the values for the inhibition at 1 µM in experiment [3] and in experiment [4] were 74% and 26%, respectively.
